Laboratory results from publication PMC7034089, “Synthesis of novel, DNA binding heterocyclic dehydroabietylamine derivatives as potential antiproliferative and apoptosis-inducing agents” (Drug Delivery, 2020).

Legend:
pKb = assay type: physicochemical
Hela (cervix) cells = experiment: MTT antiproliferative assay, Hela cells; assay type: cell-based; details: Homo sapiens, 36 h incubation, read-out: IC50 ± SE, Hela
Experimental: (§1) Compounds L^1−L^10 were evaluated against human cancer cell lines Hela, HepG2, MCF-7, A549, and the normal cell HUVEC with the antiproliferative activities in vitro by MTT assay, and results are summarized as IC50 values in Table 3.
(§2) Hela, HepG2, MCF-7, A549, and HUVEC cells were used in the antiproliferative activity assay. Cancer cells were seeded in 96-well plates with a density of 10^4 cells per well, after 12 hours of incubation at 5% CO2 and 37 °C, the culture media was removed and cells were incubated with L^1−L^10 dissolved in DMEM at different concentrations (each concentration repeated 3 times) for 36 h at 5% CO2 and 37 °C. Subsequently, removed the culture media and the new culture medium containing MTT (1 mg/mL) was added, followed by incubating for 4 h to allow the formation of formazan dye (Xia et al., [2015]; Zhao et al., [2018]). After removing the medium, 200 μL DMSO was added to each well to dissolve the formazan crystals. Absorbance was measured at 595 nm in a microplate photometer. Cell viability values were determined (at least three times) according to the following formulae: cell viability (%) = the absorbance of experimental group/the absorbance of blank control group ×100%.

A549 (lung) cells = experiment: MTT antiproliferative assay, A549 cells; assay type: cell-based; details: Homo sapiens, 36 h incubation, read-out: IC50 ± SE, A549
Experimental: as §1, §2

MCF-7 (breast) cells = experiment: MTT antiproliferative assay, MCF-7 cells; assay type: cell-based; details: Homo sapiens, MCF7, 36 h incubation, read-out: IC50 ± SE, MCF-7
Experimental: as §1, §2

HepG2 (liver) cells = experiment: MTT antiproliferative assay, HepG2 cells; assay type: cell-based; details: Homo sapiens, 36 h incubation, read-out: IC50 ± SE, HepG2
Experimental: as §2

[1] = tested on: HUVEC (umbilical vein) cells; experiment: MTT cytotoxicity assay, normal HUVEC cells; assay type: cell-based; details: Homo sapiens, 36 h, 36 h incubation, read-out: IC50 ± SE, HUVEC (toxicity, normal cell)
Experimental: as §1, §2

SMILES	pKb (pKb)	IC50 (Hela (cervix) cells) [µM]	IC50 (A549 (lung) cells) [µM]	IC50 (MCF-7 (breast) cells) [µM]	IC50 (HepG2 (liver) cells) [µM]	IC50 [1] [µM]	melting point [°C]
COc1cccc2c1C(=O)c1c(O)c3c(c(O)c1C2=O)C[C@@](O)(C(=O)CO)C[C@@H]3O[C@H]1C[C@H](N)[C@H](O)[C@H](C)O1 [DOX, Doxorubicin, reference compound]	5.80	3.55 ± 0.17	3.35 ± 0.69	14 ± 1.03	1.2 ± 0.04	4.4 ± 0.55	–
CC(C)c1ccc2c(c1)CCC1C(C)(CN)CCCC21C (stereo not shown) [L^0, dehydroabietylamine]	–	2.02 ± 0.02	5.02 ± 0.19	19.4 ± 0.39	2.56 ± 0.04	1.27 ± 0.03	–
CC(C)c1ccc2c(c1)CCC1C(C)(CN=Cc3cccs3)CCCC21C (stereo not shown) [L^1, 2-thiophene-dehydroabietylamine-Schiff-base]	–	9.02 ± 0.25	2.11 ± 0.06	5.33 ± 0.16	0.66 ± 0.02	5.98	–
Cc1ccsc1C=NCC1(C)CCCC2(C)c3ccc(C(C)C)cc3CCC12 (stereo not shown) [L^2, 3-methyl-2-thiophene-dehydroabietylamine-Schiff-base]	–	59.52 ± 0.27	> 100	14.5 ± 2.48	28.78 ± 0.19	34 ± 1.57	38.2 to 39.1
CC(C)c1ccc2c(c1)CCC1C(C)(CN=Cc3ccc(Br)s3)CCCC21C (stereo not shown) [L^3, 5-bromine-2-thiophene-dehydroabietylamine-Schiff-base]	–	54.38 ± 0.38	95.5 ± 2.48	2.65 ± 0.07	1.63 ± 0.39	16.6 ± 1.08	–
CC(C)c1ccc2c(c1)CCC1C(C)(CNC(=O)c3cccs3)CCCC21C (stereo not shown) [L^4, 2–thiophene-acyl-dehydroabietylamine]	–	14.8 ± 0.22	> 100	8.21 ± 0.65	46 ± 1.13	> 100	–
Cc1ccc(C(=O)NCC2(C)CCCC3(C)c4ccc(C(C)C)cc4CCC23)s1 (stereo not shown) [L^5, 5-methyl-2-thiophene-acyl-dehydroabietylamine]	–	> 100	> 100	8.27 ± 0.21	53.1 ± 1.95	> 100	169.4 to 171.7
CC(C)c1ccc2c(c1)CCC1C(C)(CNC(=O)c3ccc(Br)s3)CCCC21C (stereo not shown) [L^6, 5-bromine-2-thiophene-acyl-dehydroabietylamine]	–	> 100	94.4 ± 2.56	55.6 ± 2.56	51.4 ± 2	75.5 ± 12.4	170.7 to 173.2
CC(C)c1ccc2c(c1)CCC1C(C)(CNC(=O)c3cnccn3)CCCC21C (stereo not shown) [L^7, 2-pyrazine-acyl-dehydroabietylamine]	–	43.5 ± 1.34	83.6 ± 15.7	11.8 ± 0.54	24 ± 1.33	66.8 ± 2.6	159.8 to 162.3
COc1cnc(C(=O)NCC2(C)CCCC3(C)c4ccc(C(C)C)cc4CCC23)cn1 (stereo not shown) [L^8, 5-methoxyl-2-pyrazine-acyl-dehydroabietylamine]	–	20.2 ± 0.89	36 ± 2.18	8.81 ± 0.54	17.06 ± 0.07	95.1 ± 0.97	–
Cc1cnc(C(=O)NCC2(C)CCCC3(C)c4ccc(C(C)C)cc4CCC23)cn1 (stereo not shown) [L^9, 5–methyl-2-pyrazine-acyl-dehydroabietylamine]	–	52.5 ± 0.54	> 100	6.66 ± 0.24	44.9 ± 0.75	18.9 ± 1.72	130.7 to 133.4
CC(C)c1ccc2c(c1)CCC1C(C)(CNC(=O)c3cnc(Cl)cn3)CCCC21C (stereo not shown) [L^10, 5-chloro-2-pyrazine-acyl-dehydroabietylamine]	–	> 100	39.6 ± 1.74	88.8 ± 3.46	56.1 ± 6.11	29.4 ± 2.35	152.4 to 154.5
